According to patent publication US20030162777A1, “Novel N-acylated heterocycles” (Recordati S.A., priority 2001, published 2003):
Where two headings read alike, the source gives them in different places.

How the values were obtained:
[1] = system: anaesthetised rats; experiment: Effects on rhythmic bladder-voiding contractions induced by bladder filling in anaesthetised rats; assay type: in vivo, rat; conditions: for ED50: Rattus norvegicus
Procedure: Female Sprague-Dawley rats weighing 225-275 g (Crl: CDo Br, Charles River Italia) were used. The animals were housed with free access to food and water and maintained on a forced 12-hour alternating light-dark cycle at 22-24° C. for at least one week, except during the experiment. The activity on rhythmic bladder voiding contractions was evaluated according to the method of Dray (Dray J., Pharmacol. Methods, 13:157, 1985), with some modifications as in Guarneri (Guarneri, Pharmacol. Res. 27:173, 1993). Briefly, the rats were anaesthetised by subcutaneous injection of 1.25 g/kg (5 ml/kg) urethane, after which the urinary bladder was catheterised via the urethra using PE 50 polyethylene tubing filled with physiological saline. The catheter was tied in place with a ligature around the external urethral orifice and was connected to conventional pressure transducers (Statham P23 ID/P23 XL). […] The bladder was then filled via the recording catheter by incremental volumes of warm (37° C.) saline until reflex bladder-voiding contractions occurred (usually 0.8-1.5 ml). For intravenous injection of bioactive compounds, PE 50 polyethylene tubing filled with physiological saline was inserted into the jugular vein.
From the cystometrogram, the number of contractions recorded 15 minutes before (basal values) and after treatment, as well as the mean amplitude of these contractions (mean height of the peaks in mmHg), was evaluated.
Since most compounds produced an effect that was relatively rapid in onset and led to a complete cessation of bladder contractions, bioactivity was conveniently estimated by measuring the duration of bladder quiescence (i.e. the length of the time during which no contractions occurred). The number of tested animals showing a reduction in the number of contractions higher than 30% of that observed in the basal period was recorded too.
The extrapolated doses which induced a reduction in the number of contractions greater than 30% in 50% of the treated rats (ED50) were evaluated by the method of Bliss (Bliss C. I., Quart J. Pharm. Pharmacol. 11, 192-216, 1938).

[2] = system: conscious rats; experiment: Effect on cystometric parameters in conscious rats after oral administration; assay type: in vivo, rat; conditions: 3 mg/kg p.o., 1-5 h after treatment, versus vehicle
Procedure: Male Sprague-Dawley rats [Crl: CD° (SD) BR] of 300-400 g supplied by Charles River Italia were used. The animals were housed with free access to food and water and maintained on a forced 12-hour-light/12-hour-dark cycle at 22-24° C. of temperature, except during the experiment. To quantify urodynamic parameters in conscious rats, cystometrographic studies were performed according to the procedure previously reported (Guarneri et al., Pharmacol. Res. 24: 175, 1991).
Briefly, the rats were anaesthetised by intraperitoneal administration of 3 ml/kg of Equithensin solution (pentobarbital 30 mg/kg and chloral hydrate 125 mg/kg) and placed in a supine position. An approximately-10-mm-long midline incision was made in the shaved and cleaned abdominal wall. The urinary bladder was gently freed from adhering tissues, emptied and then cannulated via an incision in the bladder body, using a polyethylene cannula (0.58-mm internal diameter, 0.96-mm external diameter) which was permanently sutured with silk thread. The cannula was exteriorised through a subcutaneous tunnel in the retroscapular area, where it was connected to a plastic adapter in order to avoid the risk of removal by the animal. For drug testing, the rats were utilised one day after implantation.
On the day of the experiment, the rats were placed in modified Bollman cages, i.e. restraining cages that were large enough to permit the rats to adopt a normal crouched posture, but narrow enough to prevent turning around. […] The intraluminal-pressure signal during infusion of saline into the bladder was continuously recorded on a polygraph (Rectigraph-8K San-ei with BM614/2 amplifier from Biomedica Mangoni) and, from the cystometrogram, two urodynamic parameters were evaluated: bladder volume capacity (BVC) and micturition pressure (MP). […] Basal BVC and MP values were evaluated as mean of the values observed in the cystometrograms recorded in an initial period of 30-60 minutes. […] The bladder infusion restarted and changes in BVC and MP were evaluated from the mean values obtained in the cystometrograms observed during 1, 2, 3, 4 and 5 hours after treatment. […]
All data were expressed as mean±standard error. Time-course data were analysed by S.A.S./STAT software, version 6.12. The difference between vehicle and active-treatment effect was evaluated by: General Linear Model Procedure—Repeated Measures Analysis of Variance: Univariate test of Hypotheses for within Subject Effects—Analysis of Variance of Contrast Variables. […]

CCN(CC)CC#CCOC(=O)C(O)(c1ccccc1)C1CCCCC1 (stereo not drawn) [Oxybutynin, oxybutynin, reference compound]
ED50 ([1]; intravenous administration, urethane-anaesthetised rats, read-out: ED50 frequency (extrapolated dose inducing a reduction of the number of contractions >30% in 50% of treated rats)): > 10 mg/kg | ED50 ([1]; intravenous administration, n.a. = not active, no significant reduction of the height of the peaks, read-out: ED50 amplitude (extrapolated dose inducing a 30% reduction of amplitude of the contractions in 50% of treated rats)): 0.24 mg/kg | ED10 min (extrapolated dose inducing 10 minutes of disappearance of the contractions) ([1]; intravenous administration, urethane-anaesthetised rats): 7.77 mg/kg | cessation of bladder contractions (in words) ([1]; intravenous, anaesthetised rats): does not cause cessation of bladder contractions | effect on bladder volume capacity (BVC) [2]: slight, not-significant increase | effect on micturition pressure (MP) [2]: greatly reduced
